# Data from patent US20210379197A1, “DUAL-TARGETING LIPID-POLYMER HYBRID NANOPARTICLES” (IUCF-HYU (INDUSTRY-UNIVERSITY COOPERATION FOUNDATION …, priority 2020, published 2021).
# Tests used:
# HO1 [1] = assay: Daunorubicin-responsive HO1 upregulation, THP-1 (Western blot); assay type: cell-based, human; conditions: THP-1, various concentrations of DNR, 24 h (FIG. 9a)
# Protocol: (§1) THP-1 and U937 cells (4×10^5 cells mL^−1) were seeded and cultured in complete medium with various concentrations of DNR for 24 h. The cells were lysed using RIPA buffer and total protein was used for immunodetection by using anti-human HO1 and kactin antibodies (Cell Signaling Technology, Danvers, Mass., USA).
# HO1 [2] = assay: Daunorubicin-responsive HO1 upregulation, U937 (Western blot); assay type: cell-based, human; conditions: U937, various concentrations of DNR, 24 h (FIG. 9a)
# Protocol: as §1
structure (smiles),measurement,setting,value
"COc1cccc2c1C(=O)c1c(O)c3c(c(O)c1C2=O)C[C@@](O)(C(C)=O)C[C@@H]3O[C@H]1C[C@H](N)[C@H](O)[C@H](C)O1 [DNR, daunorubicin]",HO1 expression,HO1 [1],overexpressed
same,HO1 expression,HO1 [2],overexpressed
